From patent US20070203025A1, “Defoliant” (priority 2006, published 2007)

How the values were obtained:
[1] = test system: Cotton plants of the cultivar "Carmen"; test: Regrowth of cotton plants, by weighing the newly formed leaf material; type: in vivo; details: dose 35 g of a.i./ha, 1 l/ha Actirob B added, weight of newly formed leaf material
Method: (§1) A water application rate of 300 l/ha was initially charged. The components herbicide and adjuvant were then added with stirring at the application rates and in the manner stated in table 1, such that a homogeneous spray liquor was formed. Here, the active ingredients were employed as suspension concentrates. The adjuvant used was ®Actirob B (Novance).
(§2) Cotton seeds of the cultivar “Carmen” were sown at a depth of 1 cm and cultivated in a climatized chamber (16 h of light, temperature during the day: 26° C., at night: 20° C.) until they had reached the 8-10 leaf stage.
The plants were treated on a laboratory spray track with spray liquors of thidiazuron and thidiazuron with combination partners. The water application rate for the spray application was 300 l/ha. After the treatment, the plants were returned to the climatized chamber.
4 weeks after the application, the regrowth of the plants was assessed by weighing the newly formed leaf material.

[2] = test system: Cotton plants of the cultivar "Carmen"; test: Leaf drop effect (defoliation) on cotton plants after spray application; type: in vivo; details: dose 35 g of a.i./ha, 1 l/ha Actirob B added, scale 0-100%
Method: as §1, §2
The plants were treated on a laboratory spray track with spray liquors of thidiazuron and thidiazuron with combination partners. The water application rate for the spray application was 300 l/ha. […]
2 weeks after the application, the leaf drop effect was evaluated according to a scale from 0 to 100%: • 0% =no noticeable effect compared to untreated plants • 100% =all leaves have dropped.
One week after the application, the leaf drop effect was evaluated according to a scale from 0 to 100%: • 0% =no noticeable effect compared to untreated plants • 100% =all leaves have dropped.
One week after the application, the leaf drop effect was evaluated according to a scale from 0 to 100%: • 0%=no noticeable effect compared to untreated plants • 100%=all leaves have dropped.

With O=C(Nc1ccccc1)Nc1cnns1 [TDZ, thidiazuron] the “Regrowth [g] 4 weeks after application” value ([1]; Table 1) was 3.3 g, the “Regrowth [g] 4 weeks after application” value ([1]; Table 3) was 2.4 g and the “Leaf drop [%] 2 weeks after application” value ([2]; Table 1, 100% = all leaves have dropped) was 35%. The “Leaf drop [%] 2 weeks after application” value ([2]; Table 3) was 91%.
